Data from US20230051589A1, “COMPOUNDS AND COMPOSITIONS FOR TREATING CONDITIONS ASSOCIATED WITH NLRP ACTIVITY” (Novartis AG, priority 2018, published 2023).

System: IL-1β production in PMA-differentiated THP-1 cells
Test: IL-1β production in PMA-differentiated THP-1 cells stimulated with gramicidin (hTHP-1 assay, 2% fetal bovine serum; Procedures 1-3)
Assay type: cell-based, human
Conditions: Homo sapiens, THP-1, Table B1; hTHP-1 assay containing 2% fetal bovine serum, gramicidin stimulation, IL-1β readout; read-out: hTHP-1 IC50 (average)
Method in brief: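 IL-1β released into supernatants was read by HTRF after 2 h gramicidin (5 μM) challenge. Before challenge, compounds (3-fold dilutions, top 100 μM, 0.37% DMSO) were given 1 h on THP-1 cells differentiated with PMA (20 ng/ml, 16-18 h) and held in 2% FBS medium.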

Row | SMILES | IC50 [nM]
1 | CC(C)(O)c1ncc(S(N)(=O)=NC(=O)Nc2c3c(cc4c2CCC4)CCC3)s1 (centres unmarked) [Example 4, N′-(1,2,3,5,6,7-hexahydro-s-indacen-4-ylcarbamoyl)-2-(2-hydroxypropan-2-yl)thiazole-5-sulfonimidamide] | […]

Same assay, conditions: Homo sapiens, THP-1, Table B3; hTHP-1 assay containing 2% fetal bovine serum, gramicidin stimulation, IL-1β readout; read-out: hTHP-1 IC50

Row | SMILES | IC50 [nM]
2 | C[C@](O)(COCCOCCOCCOCCO)c1ncc(S(N)(=O)=NC(=O)Nc2c3c(cc4c2CCC4)CCC3)s1 (stereo partly drawn) [Example 750, 2-((S)-1,14-dihydroxy-3,6,9,12-tetraoxapentadecan-14-yl)-N′-((1,2,3,5,6,7-hexahydro-s-indacen-4-yl)carbamoyl)thiazole-5-sulfonimidamide] | 5000 to 30000
3 | NS(=O)(=NC(=O)Nc1c2c(cc3c1CC3)CCC2)c1sc2c(c1F)CNCC2 (centres unmarked) [Example 732, 3-Fluoro-N′-((2,4,5,6-tetrahydro-1H-cyclobuta[f]inden-3-yl)carbamoyl)-4,5,6,7-tetrahydrothieno[3,2-c]pyridine-2-sulfonimidamide] | 8 to 40
4 | NS(=O)(=NC(=O)Nc1c2c(cc3c1CC3)CCC2)c1nn(C(F)F)cc1F (centres unmarked) [compound 734, 1-(Difluoromethyl)-4-fluoro-N′-((2,4,5,6-tetrahydro-1H-cyclobuta[f]inden-3-yl)carbamoyl)-1H-pyrazole-3-sulfonimidamide] | 40 to 200
5 | CNC1CCc2cc(S(N)(=O)=NC(=O)Nc3c4c(cc5c3CCC5)CCC4)sc2C1 (centres unmarked) [Example 778, N′-((1,2,3,5,6,7-hexahydro-s-indacen-4-yl)carbamoyl)-6-(methylamino)-4,5,6,7-tetrahydrobenzo[b]thiophene-2-sulfonimidamide] | 200 to 1000
6 | CNCc1csc(S(N)(=O)=NC(=O)Nc2c3c(cc4c2CC4)CCC3)c1 (centres unmarked) [Example 722, 4-((Methylamino)methyl)-N′-((2,4,5,6-tetrahydro-1H-cyclobuta[f]inden-3-yl)carbamoyl)thiophene-2-sulfonimidamide] | 40 to 200

Same assay, conditions: Homo sapiens, THP-1, hTHP-1 assay containing 2% fetal bovine serum, Table B2, class symbols; read-out: IC50

Row | SMILES | IC50 [nM]
7 | COc1cc(CN(C)C)ccc1S(N)(=O)=NC(=O)Nc1c2c(cc3c1CCC3)CCC2 (single isomer, unassigned) [Example 606, (R) or (S)-4-((dimethylamino)methyl)-N′-((1,2,3,5,6,7-hexahydro-s-indacen-4-yl)carbamoyl)-2-methoxybenzene-sulfonimidamide] | 200 to 1000
8 | CC(C)(O)c1csc(S(N)(=O)=NC(=O)Nc2c3c(cc4c2CC4)CCC3)c1 (centres unmarked) [Example 467, 4-(2-Hydroxypropan-2-yl)-N′-((2,4,5,6-tetrahydro-1H-cyclobuta[f]inden-3-yl)carbamoyl)thiophene-2-sulfonimidamide] | 40 to 200
9 | C[C@@](O)(CO)c1ncc([S@@](N)(=O)=NC(=O)Nc2c3c(cc4c2C(=O)CC4)CCC3)s1 [Compound 920b] | 200 to 1000
10 | CC(C)(C)OC(=O)NC[C@@](C)(O)c1ncc(S(N)(=O)=NC(=O)Nc2c3c(cc4c2CCC4)CCC3)s1 (stereo partly drawn) [Example 676, Tert-butyl ((2R)-2-(5-(N′-((1,2,3,5,6,7-hexahydro-s-indacen-4-yl)carbamoyl)sulfamidimidoyl)thiazol-2-yl)-2-hydroxypropyl)carbamate] | 40 to 200
11 | C[C@](O)(CO)c1ncc([S@](N)(=O)=NC(=O)Nc2c3c(cc4c2CC4)CCC3)s1 [Compound 919d] | 200 to 1000
12 | CN(C)C(c1ccc(S(N)(=O)=NC(=O)Nc2c3c(cc4c2CCC4)CCC3)cc1)C1CC1 (centres unmarked) [Example 484, 4-(Cyclopropyl(dimethylamino)methyl)-N′-((1,2,3,5,6,7-hexahydro-s-indacen-4-yl)carbamoyl)benzenesulfonimidamide] | 200 to 1000
13 | CNCc1cccc(S(N)(=O)=NC(=O)Nc2c3c(cc4c2CCC4)CCC3)c1 (centres unmarked) [Example 508, N′-((1,2,3,5,6,7-hexahydro-s-indacen-4-yl)carbamoyl)-3-((methylamino)methyl) benzenesulfonimidamide] | 5000 to 30000
14 | N[S@@](=O)(=NC(=O)Nc1c2c(cc3c1CCC3)CCC2)c1ccc(CNC2CCCCCC2)cc1 [Example 704, (R)-4-((cycloheptylamino)methyl)-N′-((1,2,3,5,6,7-hexahydro-s-indacen-4-yl)-carbamoyl)-benzenesulfonimidamide] | 1000 to 5000
15 | CC(C)(CO)c1ncc([S@@](N)(=O)=NC(=O)Nc2c3c(c(C#N)c4c2CCC4)CCC3)s1 [Compound 913a] | 1000 to 5000

Same assay, conditions: Homo sapiens, THP-1, hTHP-1 assay containing 2% fetal bovine serum, Table B2, given as bound; read-out: IC50

Row | SMILES | IC50 [nM]
16 | CC(OC(F)F)c1ccc(S(N)(=O)=NC(=O)Nc2c3c(cc4c2CCC4)CCC3)cc1 (mixture of isomers) [Example 639, (R,S) and (S,S)-4-(1-(difluoromethoxy)ethyl)-N′-((1,2,3,5,6,7-hexahydro-s-indacen-4-yl)carbamoyl) benzenesulfonimidamide (mixture of two isomers)] | > 30000

Same assay, conditions: Table B1; hTHP-1 assay containing 2% fetal bovine serum, gramicidin stimulation, IL-1β readout; read-out: hTHP-1 IC50 (average)

Row | SMILES | IC50 [nM]
17 | CC(C)(O)c1csc(S(N)(=O)=NC(=O)Nc2c3c(c(Cl)c4c2CCC4)CCC3)c1 (single isomer, unassigned) [Example 89] | 8 to 40

Same assay, conditions: Table B3; hTHP-1 assay containing 2% fetal bovine serum, gramicidin stimulation, IL-1β readout; read-out: hTHP-1 IC50

Row | SMILES | IC50 [nM]
18 | CN[C@H](c1ccc(S(N)(=O)=NC(=O)Nc2c3c(cc4c2CC4)CCC3)s1)C1CC1 (single isomer, unassigned) [Example 869, (R, S) or (S, S)-5-(cyclopropyl(methylamino)methyl)-N′-((2,4,5,6-tetrahydro-1H-cyclobuta[f]inden-3-yl)carbamoyl)thiophene-2-sulfonimidamide] | 200 to 1000
19 | COC1CCc2c(csc2S(N)(=O)=NC(=O)Nc2c3c(cc4c2CCC4)CCC3)C1 (single isomer, unassigned) [Example 852, (S, R) or (R, R)-N′-((1,2,3,5,6,7-hexahydro-s-indacen-4-yl)carbamoyl)-5-methoxy-4,5,6,7-tetrahydrobenzo[c]thiophene-1-sulfonimidamide] | 1000 to 5000
20 | CC(C)(O)c1ccnc(S(N)(=O)=NC(=O)Nc2c3c(c(C#N)c4c2CCC4)CCC3)c1 (single isomer, unassigned) [Example 827, (R) or (S)-N′-((8-cyano-1,2,3,5,6,7-hexahydro-s-indacen-4-yl)carbamoyl)-4-(2-hydroxypropan-2-yl)pyridine-2-sulfonimidamide] | 200 to 1000
21 | CC(NC1CCC1)c1ccc(S(N)(=O)=NC(=O)Nc2c3c(cc4c2CC4)CCC3)c(F)c1 (single isomer, unassigned) [Example 847, (R, R) or (S, R) -4-(1-(cyclobutylamino)ethyl)-2-fluoro-N′-((2,4,5,6-tetrahydro-1H-cyclobuta[f]inden-3-yl)carbamoyl)benzenesulfonimidamide] | 200 to 1000
22 | NS(=O)(=NC(=O)Nc1c2c(cc3c1CC3)CCC2)c1sc(CN2CCC2)cc1F (single isomer, unassigned) [Example 843, (R) or (S)-5-(azetidin-1-ylmethyl)-3-fluoro-N′-((2,4,5,6-tetrahydro-1H-cyclobuta[f]inden-3-yl)carbamoyl)thiophene-2-sulfonimidamide] | 40 to 200

Same assay, conditions: hTHP-1 assay containing 2% fetal bovine serum, Table B2, class symbols; read-out: IC50

Row | SMILES | IC50 [nM]
23 | Cc1c(C2CC2)cc2c(c1NC(=O)N=S(N)(=O)c1cnc(C(C)(C)O)s1)CCC2 (single isomer, unassigned) [Example 562, (S) or (R)-N′-((6-cyclopropyl-5-methyl-2,3-dihydro-1H-inden-4-yl)carbamoyl)-2-(2-hydroxypropan-2-yl)thiazole-5-sulfonimidamide] | 1000 to 5000
24 | CNCC(C)(C)c1ccc(S(N)(=O)=NC(=O)Nc2c3c(cc4c2CCC4)CCC3)cc1 (single isomer, unassigned) [Example 519, (R) or (S)-N′-((1,2,3,5,6,7-hexahydro-s-indacen-4-yl)carbamoyl)-4-(2-methyl-1-(methylamino)propan-2-yl) benzenesulfonimidamide] | 1000 to 5000
25 | CC(C)(O)c1cnc(S(N)(=O)=NC(=O)Nc2c3c(cc4c2CCC4O)CCC3)s1 (single isomer, unassigned) [Example 658, (R,S) or (R,R)-N′-((1-hydroxy-1,2,3,5,6,7-hexahydro-5-indacen-4-yl)carbamoyl)-5-(2-hydroxypropan-2-yl)thiazole-2-sulfonimidamide] | 5000 to 30000
26 | CC(C)(O)c1csc([S@](N)(=O)=NC(=O)Nc2c3c(cc4c2C(=O)CC4)CCC3)c1 (single isomer, unassigned) [Example 530, (R) or (S)-4-(2-hydroxypropan-2-yl)-N′-((3-oxo-1,2,3,5,6,7-hexahydro-s-indacen-4-yl)carbamoyl) (thiophene-2-sulfonimidamide] | 40 to 200
27 | CC(C)(O)c1cc(S(N)(=O)=NC(=O)Nc2c3c(c(C#N)c4c2CCC4)CCC3)nn1-c1ccccc1 (single isomer, unassigned) [Example 575, (R) or (S)-N′-((8-cyano-1,2,3,5,6,7-hexahydro-s-indacen-4-yl)carbamoyl)-5-(2-hydroxypropan-2-yl)-1-pheny-1H-pyrazole-3-sulfonimidamide] | 200 to 1000
28 | CC(O)(CO)c1cc(F)c(S(N)(=O)=NC(=O)Nc2c3c(c(C#N)c4c2CCC4)CCC3)s1 (single isomer, unassigned) [Example 629, (S,R) or (R,R)-N′-((8-cyano-1,2,3,5,6,7-hexahydro-s-indacen-4-yl)carbamoyl)-5-(1,2-dihydroxypropan-2-yl)-3-fluorothiophene-2-sulfonimidamide] | 40 to 200
29 | CC(C)(O)c1nc(S(N)(=O)=NC(=O)Nc2c3c(cc4c2CCC4)CCC3)cs1 (single isomer, unassigned) [Example 556, (S) or (R)-N′-((1,2,3,5,6,7-hexahydro-s-indacen-4-yl)carbamoyl)-2-(2-hydroxypropan-2-yl)thiazole-4-sulfonimidamide] | 5000 to 30000
